Entries after “also recorded” stand apart in the source; their conditions may differ.
Key:
EP300 [1] = target: T1, EP300 (Mus musculus, UniProt B2RWS6); assay: Immunohistochemistry (IHC) staining of liver from MTD study, EP300; format: in vivo; settings: normal mice, 40 mpk, 14-day treatment
T1 construct: from tissue; host or cells: mouse liver (CD1 mice)
Excerpt: Immunohistochemistry (IHC) staining was used to examine a liver from MTD study. […] No changes in CBP and H3K27Ac levels were observed.

U266 cells = assay: 4-day growth inhibition assay (ATPlite / cell counting kit), U266 cells; format: cell-based; settings: 0-10 μM
Description: An aliquot of the ATP standard solution (ATPlite™ 1000 assay kit, PerkinElmer®, USA) was used to prepare a dilution series in water. A series of 100 μL of complete culture medium was pipetted without cells into the wells of the plate. To each well was added 50 μL of the mammalian cell lysis solution, and the plate was shaken for 5 minutes in an orbital shaker at 700 rpm. 10 μL of the ATP dilution series was added to the wells, and the plate was shaken for 5 minutes in an orbital shaker at 700 rpm. 50 μL of the substrate solution was added and the plate was shaken for 5 minutes in an orbital shaker at 700 rpm. The plate dark adapted the plate for 10 minutes prior to measuring the luminescence and then preparing a standard curve.

CBP = target: T2, CBP (Homo sapiens, UniProt Q92793); assay: Cellular degradation assay (immunoblot) in Kelly NB cells, CBP; format: cell-based
T2 construct: endogenous in cells; host or cells: Kelly neuroblastoma cells (incl. Ch2.2, LACZ and CRBN knockout lines)
T2 sequence (Q92793 whole entry): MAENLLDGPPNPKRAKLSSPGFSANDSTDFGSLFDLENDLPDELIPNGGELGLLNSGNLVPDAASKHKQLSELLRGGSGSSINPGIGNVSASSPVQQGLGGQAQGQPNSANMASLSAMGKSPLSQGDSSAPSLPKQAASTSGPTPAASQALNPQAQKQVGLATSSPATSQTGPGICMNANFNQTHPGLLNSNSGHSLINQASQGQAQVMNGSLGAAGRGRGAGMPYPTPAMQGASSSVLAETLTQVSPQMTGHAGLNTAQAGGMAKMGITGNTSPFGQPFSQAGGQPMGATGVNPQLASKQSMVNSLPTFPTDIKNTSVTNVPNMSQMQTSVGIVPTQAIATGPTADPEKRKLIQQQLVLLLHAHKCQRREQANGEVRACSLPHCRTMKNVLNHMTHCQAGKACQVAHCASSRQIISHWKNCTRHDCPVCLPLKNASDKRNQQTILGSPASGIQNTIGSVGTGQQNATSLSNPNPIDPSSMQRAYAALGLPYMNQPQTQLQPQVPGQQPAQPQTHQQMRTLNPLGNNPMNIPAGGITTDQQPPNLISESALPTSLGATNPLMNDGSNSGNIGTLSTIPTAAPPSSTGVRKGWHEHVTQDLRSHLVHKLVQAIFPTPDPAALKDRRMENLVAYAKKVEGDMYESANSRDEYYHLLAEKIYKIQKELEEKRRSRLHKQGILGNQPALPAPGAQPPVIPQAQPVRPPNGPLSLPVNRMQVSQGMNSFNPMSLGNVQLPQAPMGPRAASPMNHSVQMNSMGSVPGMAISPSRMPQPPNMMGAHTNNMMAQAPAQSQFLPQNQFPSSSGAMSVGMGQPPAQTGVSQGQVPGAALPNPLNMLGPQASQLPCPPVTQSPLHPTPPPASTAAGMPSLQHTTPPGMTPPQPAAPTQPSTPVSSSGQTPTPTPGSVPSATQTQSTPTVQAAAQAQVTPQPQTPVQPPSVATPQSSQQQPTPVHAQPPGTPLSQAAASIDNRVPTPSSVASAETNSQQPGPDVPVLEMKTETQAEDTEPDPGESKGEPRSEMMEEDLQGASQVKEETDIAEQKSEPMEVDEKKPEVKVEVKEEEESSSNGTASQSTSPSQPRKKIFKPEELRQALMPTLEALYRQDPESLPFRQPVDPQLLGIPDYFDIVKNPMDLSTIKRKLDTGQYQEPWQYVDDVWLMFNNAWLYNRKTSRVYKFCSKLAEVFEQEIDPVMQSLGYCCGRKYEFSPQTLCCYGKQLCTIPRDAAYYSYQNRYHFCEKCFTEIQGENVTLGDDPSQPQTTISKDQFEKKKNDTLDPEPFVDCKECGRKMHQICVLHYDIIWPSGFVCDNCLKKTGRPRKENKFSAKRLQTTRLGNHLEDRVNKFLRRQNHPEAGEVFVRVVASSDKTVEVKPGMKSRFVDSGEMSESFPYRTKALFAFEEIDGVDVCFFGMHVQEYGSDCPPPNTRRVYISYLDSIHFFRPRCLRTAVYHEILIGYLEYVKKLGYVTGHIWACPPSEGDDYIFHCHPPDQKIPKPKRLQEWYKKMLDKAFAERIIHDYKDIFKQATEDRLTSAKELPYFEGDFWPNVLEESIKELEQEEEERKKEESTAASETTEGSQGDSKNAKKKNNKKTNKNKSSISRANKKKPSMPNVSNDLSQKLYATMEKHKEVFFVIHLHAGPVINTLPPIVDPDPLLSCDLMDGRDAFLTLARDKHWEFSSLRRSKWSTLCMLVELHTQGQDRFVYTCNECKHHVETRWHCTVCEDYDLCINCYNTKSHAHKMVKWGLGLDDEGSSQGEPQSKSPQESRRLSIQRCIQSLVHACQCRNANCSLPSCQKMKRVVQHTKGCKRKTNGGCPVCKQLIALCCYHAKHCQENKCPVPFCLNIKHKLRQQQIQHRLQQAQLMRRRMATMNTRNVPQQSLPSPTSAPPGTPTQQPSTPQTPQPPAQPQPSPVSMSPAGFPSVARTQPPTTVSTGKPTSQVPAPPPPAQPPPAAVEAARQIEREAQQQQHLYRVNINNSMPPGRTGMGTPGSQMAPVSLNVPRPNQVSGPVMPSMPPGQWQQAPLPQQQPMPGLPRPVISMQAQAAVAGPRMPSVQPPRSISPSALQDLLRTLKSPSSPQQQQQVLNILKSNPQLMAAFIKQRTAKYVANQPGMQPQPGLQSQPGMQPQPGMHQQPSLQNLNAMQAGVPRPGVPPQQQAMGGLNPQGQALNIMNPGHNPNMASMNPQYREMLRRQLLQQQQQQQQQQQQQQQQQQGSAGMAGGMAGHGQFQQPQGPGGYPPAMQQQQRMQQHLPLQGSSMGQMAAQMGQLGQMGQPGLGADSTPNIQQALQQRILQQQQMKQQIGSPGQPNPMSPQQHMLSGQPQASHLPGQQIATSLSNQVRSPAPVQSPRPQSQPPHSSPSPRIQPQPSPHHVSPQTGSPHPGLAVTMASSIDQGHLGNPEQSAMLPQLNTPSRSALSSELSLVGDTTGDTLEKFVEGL
Description: (§1) Kelly Neuroblastoma cells were seeded at 1,000,000 cells per well in 6 well plates and were treated in a dose-dependent manner for 24 to 72 hours. Whole cell lysates were collected using ice cold lysis buffer [300 mM NaCl, 50 mM Tris-HCl, pH 7.5, 0.5% Triton X-100, 1% SDS, 1 mM dithiothreitol (DTT), Roche® protease inhibitor cocktail (1:000), 25 units/mL Benzonase] and blotted at a protein concentration of 20 μg. Histone extraction was performed using the EpiQuik™ Total Histone Extraction Kit (OP-0006-100, Epigentek) and blotted at a protein concentration of 4 μg.
(§2) Whole cell lysates were resolved in NuPAGE® 3-8% Tris-Acetate polyacrylamide gels (EA03785BOX, Invitrogen™) and histone extraction lysates in Bolt 4-12% Bis-Tris polyacrylamide gels (NWO4125BOX, Invitrogen™). Afterwards, gels were transferred to nitrocellulose membranes (LC2001, Invitrogen™). […]
(§3) The experimental protocol is the same as in Example 24. The protein level was determined by immunoblot using EP300 antibody, CBP antibody or H3K27ac antibody. […]

[2] = Maximum tolerated dose (MTD) study in mice; format: in vivo; settings: mice, 10, 20 and 40 mg/kg
Description: CPD 1 was tested in mice for maximum tolerated dose (MTD) (FIG. 6A). The mice were treated with 10 mg/kg (mpk), 20 mpk, and 40 mpk with 4 mice in each group. The compound was also tested in human CRBN knock in mice, the blood samples were collected after 21 day treatment. All the tested blood samples were normal.

EP300 [3] = target: T3, EP300 (Homo sapiens, UniProt Q09472); assay: Cellular degradation assay (immunoblot) in Kelly NB cells, EP300; format: cell-based; settings: dose or time dependent
T3 construct: Whole cell lysates were collected using ice cold lysis buffer; endogenous in cells; host or cells: Kelly neuroblastoma cells (incl. Ch2.2, LACZ and CRBN knockout lines)
T3 sequence (Q09472 whole entry): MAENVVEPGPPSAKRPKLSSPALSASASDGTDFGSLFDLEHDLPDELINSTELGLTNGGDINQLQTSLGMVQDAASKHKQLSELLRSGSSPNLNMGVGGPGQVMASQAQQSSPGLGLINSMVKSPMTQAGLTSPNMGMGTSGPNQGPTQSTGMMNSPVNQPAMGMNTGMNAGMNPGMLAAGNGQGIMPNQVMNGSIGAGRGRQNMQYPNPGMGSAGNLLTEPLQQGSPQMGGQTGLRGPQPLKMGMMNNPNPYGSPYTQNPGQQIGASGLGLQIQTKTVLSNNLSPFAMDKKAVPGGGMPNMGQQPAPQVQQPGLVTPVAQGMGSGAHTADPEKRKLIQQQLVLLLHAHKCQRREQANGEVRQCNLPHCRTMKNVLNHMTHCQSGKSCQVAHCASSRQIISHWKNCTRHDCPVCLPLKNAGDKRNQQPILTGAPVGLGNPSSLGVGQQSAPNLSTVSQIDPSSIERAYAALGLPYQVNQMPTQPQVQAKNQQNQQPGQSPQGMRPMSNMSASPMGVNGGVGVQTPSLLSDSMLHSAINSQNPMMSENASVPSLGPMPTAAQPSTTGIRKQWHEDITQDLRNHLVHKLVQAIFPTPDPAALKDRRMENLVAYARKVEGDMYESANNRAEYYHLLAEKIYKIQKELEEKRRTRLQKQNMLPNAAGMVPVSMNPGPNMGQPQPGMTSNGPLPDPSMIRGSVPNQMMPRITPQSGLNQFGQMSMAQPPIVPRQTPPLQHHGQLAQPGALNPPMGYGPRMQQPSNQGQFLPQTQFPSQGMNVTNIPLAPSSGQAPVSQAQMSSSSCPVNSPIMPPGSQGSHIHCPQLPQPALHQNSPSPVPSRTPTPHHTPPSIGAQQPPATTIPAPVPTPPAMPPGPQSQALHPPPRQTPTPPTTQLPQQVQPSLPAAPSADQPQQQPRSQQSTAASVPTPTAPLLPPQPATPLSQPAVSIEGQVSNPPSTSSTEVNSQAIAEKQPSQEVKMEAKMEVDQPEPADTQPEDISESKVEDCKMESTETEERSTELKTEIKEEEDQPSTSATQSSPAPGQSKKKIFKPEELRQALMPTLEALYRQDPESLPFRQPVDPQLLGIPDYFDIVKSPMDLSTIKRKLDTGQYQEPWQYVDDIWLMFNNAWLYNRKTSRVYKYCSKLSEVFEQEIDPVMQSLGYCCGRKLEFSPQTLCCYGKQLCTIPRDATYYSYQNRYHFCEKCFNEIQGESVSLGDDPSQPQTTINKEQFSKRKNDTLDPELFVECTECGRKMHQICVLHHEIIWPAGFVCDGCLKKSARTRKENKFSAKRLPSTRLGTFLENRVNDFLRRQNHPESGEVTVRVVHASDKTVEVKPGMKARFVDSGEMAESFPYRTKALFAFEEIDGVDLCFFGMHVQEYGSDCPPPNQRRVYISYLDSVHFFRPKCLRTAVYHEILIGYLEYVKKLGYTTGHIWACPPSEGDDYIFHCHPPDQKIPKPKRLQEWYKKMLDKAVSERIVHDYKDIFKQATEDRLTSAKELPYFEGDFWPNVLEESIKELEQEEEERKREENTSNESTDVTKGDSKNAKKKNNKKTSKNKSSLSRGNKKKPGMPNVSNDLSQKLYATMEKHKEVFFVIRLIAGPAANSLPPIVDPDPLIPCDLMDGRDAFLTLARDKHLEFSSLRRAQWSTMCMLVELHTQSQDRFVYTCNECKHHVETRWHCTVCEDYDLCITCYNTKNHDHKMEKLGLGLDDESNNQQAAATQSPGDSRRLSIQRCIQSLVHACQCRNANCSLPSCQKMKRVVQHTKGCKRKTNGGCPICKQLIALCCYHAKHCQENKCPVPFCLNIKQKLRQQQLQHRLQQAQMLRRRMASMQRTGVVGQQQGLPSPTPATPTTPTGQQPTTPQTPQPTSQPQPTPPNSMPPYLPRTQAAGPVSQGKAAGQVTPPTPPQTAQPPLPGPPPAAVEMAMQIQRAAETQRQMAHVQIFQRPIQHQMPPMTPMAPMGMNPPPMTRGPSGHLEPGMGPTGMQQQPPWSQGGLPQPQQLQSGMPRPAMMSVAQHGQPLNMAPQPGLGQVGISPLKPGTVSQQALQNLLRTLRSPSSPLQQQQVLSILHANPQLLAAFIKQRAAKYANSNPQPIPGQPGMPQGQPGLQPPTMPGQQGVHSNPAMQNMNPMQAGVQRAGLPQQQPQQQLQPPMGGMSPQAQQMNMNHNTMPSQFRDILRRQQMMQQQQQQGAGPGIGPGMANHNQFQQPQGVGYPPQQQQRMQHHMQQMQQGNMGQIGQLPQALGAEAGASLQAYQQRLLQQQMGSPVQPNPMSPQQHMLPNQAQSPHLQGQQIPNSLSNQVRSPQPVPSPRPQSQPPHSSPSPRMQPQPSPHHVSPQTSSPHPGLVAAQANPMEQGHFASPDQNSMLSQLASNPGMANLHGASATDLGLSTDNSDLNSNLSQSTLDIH
Description: as §1, §2, §3

HAT (EP300) domain = target: T4, HAT (EP300) domain (Homo sapiens, UniProt Q09472); assay: AlphaScreen assay, HAT (EP300) domain; format: binding
T4 sequence (Q09472 1287-1663 limits assumed): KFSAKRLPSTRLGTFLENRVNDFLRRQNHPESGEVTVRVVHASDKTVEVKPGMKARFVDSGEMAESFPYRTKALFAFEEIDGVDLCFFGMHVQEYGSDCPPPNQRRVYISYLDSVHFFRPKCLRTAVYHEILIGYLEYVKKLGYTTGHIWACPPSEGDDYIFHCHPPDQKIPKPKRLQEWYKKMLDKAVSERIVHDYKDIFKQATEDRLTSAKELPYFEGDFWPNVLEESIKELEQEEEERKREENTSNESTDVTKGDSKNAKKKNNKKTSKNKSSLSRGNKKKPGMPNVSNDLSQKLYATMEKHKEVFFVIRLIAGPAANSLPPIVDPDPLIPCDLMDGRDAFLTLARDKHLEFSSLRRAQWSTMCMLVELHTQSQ
Description: The AlphaScreen™ assay was performed in 384-well plate format using white AlphaPlate (PerkinElmer®, USA), and transfer of pre-diluted compound (100 nL) was performed using a Janus Workstation (PerkinElmer®, USA). All subsequent steps were carried out in assay buffer (50 mM 4-(2-hydroxyethyl)-1-piperazineethanesulfonic acid (HEPES), pH 7.5, 0.1% (wt/vol) bovine serum albumin (BSA) and 0.01% (vol/vol) Tween-20). In brief, 10 μL of assay buffer containing enzyme (2 nM Final) was pre-incubated for 15 min with dilutions of compound. The enzyme reaction was initiated by the addition of substrate (5 μL) consisting of acetyl Co-A 2-OG (5 μM Final).
FAS final concentration was 10 μM. Histone tail-GGK Biotin final concentration was 100 nM Final. The enzyme reaction was allowed to proceed for 30 minutes and was stopped by the addition of 5 μL of assay buffer containing ethylenediaminetetraacetic acid (EDTA) (40 mM) and NaCl (1200 mM). The final concentration of dimethyl sulfoxide (DMSO) was 1%. Streptavidin donor beads (0.08 mg/mL) and protein-A-conjugated acceptor beads (0.08 mg/mL) were preincubated for 1 h with antibody to methyl mark (300 ng/mL Final), and the presence of histone H3 product acetylation mark was detected using the preincubated AlphaScreen™ beads (5 μL). Detection was allowed to proceed for 2 hours at rt, and the assay plates were read on the Envision™ 2104 plate reader. Data were normalized to the (no-enzyme) control, and the IC50 values were determined via nonlinear regression curve fit using GraphPad Prism (FIG. 4E-FIG. 4H).
AlphaScreen™ assay was used to determine the binding of inventive degrader compound toward both CRBN and HAT domain. The experimental protocol is the same as in Example 26.

SMILES: C[C@H](N(Cc1ccc(F)cc1)C(=O)CN1C(=O)O[C@@]2(CCc3cc(NC(=O)CCCCCCCCCCCNc4ccc5c(c4)C(=O)N(C4CCC(=O)NC4=O)C5=O)ccc32)C1=O)C(F)(F)F (stereo partly drawn) [CPD 1, 12-((2-(2,6-dioxopiperidin-3-yl)-1,3-dioxoisoindolin-5-yl)amino)-N—((R)-3′-(2-((4-fluorobenzyl)((S)-1,1,1-trifluoropropan-2-yl)amino)-2-oxoethyl)-2′,4′-dioxo-2,3-dihydrospiro[indene-1,5′-oxazolidin]-5-yl)dodecanamide]
- EP300 (P300) level in liver tissue (EP300 [1]): A drop in P300 levels was observed
- growth inhibition compared with A485 (U266 cells): outperformed inhibitor A485
- CBP degradation (CBP; after 48 hour): degradation of CBP was observed
- CBP level (CBP; first 36 hours): without affecting the CBP level
- body weight loss [2]: no weight loss was observed
- tolerability [2]: well tolerated
- EP300 degradation (EP300 [3]): selective degradation of EP300; also recorded: clear degradation of EP300
- binding to HAT (EP300) domain (HAT (EP300) domain): bound and bind
